The text below walks through data of ChEMBL document CHEMBL5154867, “Baylis-Hillman Adducts as a Versatile Module for Constructing Fluorogenic Release System” (J Med Chem, 2022).

The source made the active and inactive calls. The calls are words filed in the database; no cut-off is given here.

Data set [1] has as its system BV-2. Description: Neuroprotective activity against OGD-induced mouse BV2 cells assessed as morphological change at 1 to 4 uM incubated for 4 hrs by fluorescence microscopy. In kind it is functional, cell-based. The settings on record: dose 1-4 µM.
Data set [2] can be described thus: Stability of compound in mouse plasma assessed as prodrug remaining at 100 uM measured upto 12 hrs by HPLC analysis. In kind it is ADME, cell-free.
Data set [3] in a line: Prodrug activation in human HepG2 cells assessed as bis-thiol adduct by measuring green fluorescence at 20 uM treated for 15 mins by fluorescence microscopy. In kind it is cell-based. The note with it: hepg2, 0.25 h.
The test system of data set [4] is BV-2. Put plainly: Neuroprotective activity against OGD-induced mouse BV2 cells assessed as increase in cell viability at 2 to 4 uM incubated for 4 hrs followed by reoxygenation by MTT assay. In kind it is functional, cell-based. The note with it: dose 2-4 µM.
The nature of data set [5]: Prodrug activation in PBS assessed as increase in GSH-activated NO release at 10 uM in presence of 1 mM GSH measured for 40 mins by Griess assay. The note with it: buffer.
A short description of data set [6]: Drug uptake in mouse brain assessed as penetration depth at 1 mM treated for 2 hrs by two-photon based fluorescence microscopy. In kind it is ADME, tissue-based. The settings on record: in vivo, 1000 µM.
Data set [7] is described as follows: Prodrug activation in PBS at pH 7.4 assessed as GSH-induced NO release by measuring increase in fluorescence at 10 uM in presence of 1 mM GSH. The note with it: buffer, pH 7.4, 10 µM.
Data set [8] is described as follows: Prodrug activation in PBS at pH 7.4 assessed as change in fluorescence signal at 10 uM incubated for 60 mins in presence of 1 mM homocysteine by fluorescence based assay. The settings on record: buffer, pH 7.4, 1 h.
Data set [9] is described as follows: Prodrug activation in zebrafish assessed as green fluorescence signal at 20 uM incubated for 20 mins by fluorescence microscopy. The arrangement: species or system Danio rerio.
Data set [10] can be described thus: Prodrug activation in human HepG2 cells assessed as NO release by measuring red fluorescence at 20 uM treated for 15 mins by dRB-OPD staining based fluorescence microscopy. In kind it is cell-based. The note with it: hepg2, 0.25 h.
Data set [11] can be described thus: Prodrug activation in zebrafish assessed as NO release by measuring red fluorescence signal at 20 uM incubated for 20 mins by dRB-OPD staining based fluorescence microscopy. The arrangement: species or system Danio rerio.
Data set [12] is described as follows: Prodrug activation in PBS at pH 6.5 to 9.0 at 10 uM incubated for 60 mins in presence of 1 mM GSH by fluorescence based assay. The settings on record: buffer, pH 6.5, 1 h.
The nature of data set [13]: Prodrug activation in PBS at pH 7.4 assessed as GSH bis-adduct at 10 uM incubated upto 60 mins in presence of 1 mM GSH by LC-MS analysis. The note with it: buffer, pH 7.4, 1 h.
The nature of data set [14]: Prodrug activation in PBS assessed as amount of GSH-activated NO release at 17 uM in presence of 1 mM GSH by Griess assay. The note with it: buffer.
In data set [15] the test system is BV-2. Description: Cytotoxicity against mouse BV2 cells assessed as cell survival at less than 4 uM incubated for 24 hrs by MTT assay. In kind it is toxicity, cell-based. The note with it: bv-2, 24 h.
Data set [16] can be described thus: Prodrug activation in PBS at pH 7.4 assessed as GSH-induced NO release by measuring increase in fluorescence at 10 uM incubated for 60 mins in presence of 1 mM GSH by fluorescence based assay. The note with it: buffer, pH 7.4, 1 h.
Data set [17] in a line: Drug uptake in zebrafish embryo assessed as penetration depth at 20 uM treated for 20 mins by two-photon based fluorescence microscopy. In kind it is ADME, Danio rerio. The settings on record: in vivo.
Data set [18] has as its system BV-2. Put plainly: Cytotoxicity against mouse BV-2 cells assessed as cell survival upto 2 uM incubated for 24 hrs by MTT assay. The note with it: bv-2, 24 h. In kind it is toxicity, cell-based.
For the next data set, the system named is Astrocyte. Description: Cytotoxicity against astrocyte cells assessed as cell survival upto 2 uM incubated for 24 hrs by MTT assay. In kind it is toxicity, cell-based.
Data set [19] can be described thus: Prodrug activation in PBS at pH 7.4 assessed as change in fluorescence signal at 10 uM incubated for 60 mins in presence of 1 mM cysteine by fluorescence based assay. The settings on record: buffer, pH 7.4, 1 h.
Data set [20] is described as follows: Prodrug activation in PBS at pH 7.4 assessed as decrease in compound at 10 uM incubated upto 60 mins in presence of 1 mM GSH by LC-MS analysis. The settings on record: buffer, pH 7.4, 1 h.
A short description of data set [21]: Prodrug activation in PBS at pH 7.4 assessed as GSH mono-adduct formation at 10 uM in presence of 1 mM GSH measured after 5 mins by LC-MS analysis. The settings on record: buffer, pH 7.4, 5 min.
A short description of data set [22]: Prodrug activation in PBS at pH 7.4 assessed as CPT release at 10 uM measured within 30 mins by fluorescence microscopy. The settings on record: buffer, pH 7.4, 0.5 h.
The nature of data set [23]: Prodrug activation in human HepG2 cells assessed as retention time of CPT by LC-MS analysis. In kind it is cell-based.
Data set [24] is described as follows: Prodrug activation in human HepG2 cells assessed as retention time of prodrug by LC-MS analysis. In kind it is cell-based.
Data set [25] is described as follows: Prodrug activation in PBS at pH 7.4 assessed as GSH bis-adduct formation at 10 uM in presence of 1 mM GSH measured 10 mins by LC-MS analysis. The note with it: buffer, pH 7.4, 10 min.
Data set [26] can be described thus: Prodrug activation in human HepG2 cells assessed as retention time of GSH bis-adduct formation at 10 uM treated for 1 hr in presence of 1 mM GSH by LC-MS analysis. In kind it is cell-based. The note with it: hepg2, 1 h.
Data set [27] in a line: Prodrug activation in PBS at pH 7.4 assessed as retention time of GSH mono-adduct formation at 10 uM in presence of 1 mM GSH by LC-MS analysis. The settings on record: buffer, pH 7.4, 10 µM.
The nature of data set [28]: Prodrug activation in PBS at pH 7.4 assessed as retention time of CPT at 10 uM in presence of 1 mM GSH by LC-MS analysis. The settings on record: buffer, pH 7.4, 10 µM.
Data set [29] is described as follows: Prodrug activation in human HepG2 cells assessed as GSH bis-adduct formation by measuring green fluorescence at 10 uM incubated upto 30 mins by inverted fluorescence microscopy. In kind it is cell-based. The note with it: hepg2, 0.5 h.
The nature of data set [30]: Prodrug activation in PBS at pH 7.4 assessed as retention time of GSH bis-adduct formation at 10 uM in presence of 1 mM GSH by LC-MS analysis. The note with it: buffer, pH 7.4, 10 µM.
Data set [31] in a line: Prodrug activation in human HepG2 cells assessed as CPT release by measuring blue fluorescence at 10 uM incubated upto 30 mins by inverted fluorescence microscopy. In kind it is cell-based. The settings on record: hepg2, 0.5 h.
Data set [32] in a line: Prodrug activation in PBS at pH 7.4 assessed as rate of CPT release at 10 uM measured within 10 mins by fluorescence microscopy. The settings on record: buffer, pH 7.4, 10 min.
The nature of data set [33]: Prodrug activation in PBS at pH 7.4 assessed as CPT release at 10 uM in presence of 1 mM GSH measured after 5 mins by LC-MS analysis. The note with it: buffer, pH 7.4, 5 min.
Data set [34] is described as follows: Prodrug activation in PBS at pH 7.4 assessed as retention time of prodrug at 10 uM in presence of 1 mM GSH by LC-MS analysis. The note with it: buffer, pH 7.4, 10 µM.

With `C=C(CO/N=[N+](/[O-])N1CCCC1)C(=O)c1ccc2cc(N(C)C)ccc2c1`, the outcome in the data set with BV-2 [1] and in the data set on BV-2 [4] was Active. Moreover, the Stability in [2] is more than 60%. Also, the Drug metabolism result in data set [3], in data set [6], in data set [9], in data set [10], in [11] and in data set [17] was “Metabolite_Detected” each time. Further, the Activity entry in [5] was “Active”; in [7] it was “Active”; in data set [8] it was “Active”; in data set [12] it was “Active”; in data set [13] it was “Active”; in data set [14], 85%. Moreover, the Activity entry in the data set on BV-2 [15] was “Active”; in data set [16] it was “Active”; in the data set on BV-2 [18], “Non-Toxic”; in the data set with Astrocyte it was “Non-Toxic”; in data set [19], “Active”; in [20] it was “Active”.

For `C=C(COC(=O)O[C@]1(CC)C(=O)OCc2c1cc1n(c2=O)Cc2cc3ccccc3nc2-1)C(=O)c1ccc2cc(N(C)C)ccc2c1`, the Activity result is listed as “Active” in data set [21]; “Active” in [22]; “Active” in [25]; more than 90% in data set [32]; “Active” in data set [33]. For the same compound, in data set [2], the Stability was more than 60%. The Retention_time amounted to 10.2 min in [23]; 28.9 min in data set [24]; 5.1 min in [26]; 13.5 min in [27]; 10.2 min in [28]; 5.1 min in data set [30]. Also, the Retention_time in data set [34] is listed as 28.9 min. For the same compound, the Drug metabolism entry in data set [29] and in data set [31] was “Metabolite_Detected” in each case.
